According to patent publication US20230085307A1, “PYRIDAZINONE COMPOUND AND HERBICIDE” (NISSAN CHEMICAL CORPORATION, priority 2019, published 2023):

Columns and labels:
late watergrass = assay: Test Example 1: herbicidal activity, application before weed generation under submerged conditions (Table 16, symbol A); format: in vivo, late watergrass (Echinochloa oryzicola); details: 320 g/ha applied herbicide
How it was run: (§1)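 Submerged Wagner pots (alluvial soil, 4 cm water) sown with weed seeds and planted with 2.5-leaf rice seedlings; emulsifiable concentrate diluted in water applied to water surface on sowing day. Held in greenhouse at 25-30 °C; injury scored 0-5 by herbicidal rate after three weeks.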

Japanese bulrush = assay: Test Example 1: herbicidal activity, application before weed generation under submerged conditions (Table 16, symbol B); format: in vivo, Japanese bulrush (Schoenoplectus juncoides); details: 320 g/ha applied herbicide
How it was run: as §1

persian speedwell [1] = assay: Test Example 4: herbicidal effect by soil treatment (Table 19, symbol R); format: in vivo, Persian speedwell (Veronica persica); details: amount of applied herbicide 320 g/ha
How it was run: (§2)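 In this soil treatment, the formulated compound reached the seeds only through the soil: seeds were buried about 1.5 cm deep in sterilized diluvial soil, then the diluted emulsion was sprayed over the surface. After three weeks at 25° C. to 30° C. in a greenhouse, effects were graded on criteria from an earlier test.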

windgrass [2] = assay: Test Example 5: herbicidal effect by foliage application, plastic box (Table 20, symbol L); format: in vivo, windgrass (Apera spica-venti); details: foliage application, evaluated three weeks after application
How it was run: (§3)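 Plants were sown into sterilized diluvial soil under about 1.5 cm cover and kept in a greenhouse at 25° C. to 30° C. Fourteen days on, foliage received an even spray of the diluted emulsion. Herbicidal or crop effect was judged three weeks afterwards.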

windgrass [3] = assay: Test Example 4: herbicidal effect by soil treatment (Table 19, symbol L); format: in vivo, windgrass (Apera spica-venti); details: amount of applied herbicide 320 g/ha
How it was run: as §2

oval-leafed pondweed = assay: Test Example 1: herbicidal activity, application before weed generation under submerged conditions (Table 16, symbol C); format: in vivo, oval-leafed pondweed (Monochoria vaginalis); details: 320 g/ha applied herbicide
How it was run: as §1

southern crabgrass [4] = assay: Test Example 4: herbicidal effect by soil treatment (Table 19, symbol F); format: in vivo, southern crabgrass (Digitaria ciliaris); details: amount of applied herbicide 320 g/ha
How it was run: as §2

Italian ryegrass [5] = assay: Test Example 4: herbicidal effect by soil treatment (Table 19, symbol K); format: in vivo, Italian ryegrass (Lolium multiflorum); details: amount of applied herbicide 320 g/ha
How it was run: as §2

green foxtail [6] = assay: Test Example 4: herbicidal effect by soil treatment (Table 19, symbol G); format: in vivo, green foxtail (Setaria viridis); details: amount of applied herbicide 320 g/ha
How it was run: as §2

barnyard grass [7] = assay: Test Example 4: herbicidal effect by soil treatment (Table 19, symbol H); format: in vivo, barnyard grass (Echinochloa crus-galli); details: amount of applied herbicide 320 g/ha
How it was run: as §2

wild oat [8] = assay: Test Example 5: herbicidal effect by foliage application, plastic box (Table 20, symbol I); format: in vivo, wild oat (Avena fatua); details: foliage application, evaluated three weeks after application
How it was run: as §3

green foxtail [9] = assay: Test Example 5: herbicidal effect by foliage application, plastic box (Table 20, symbol G); format: in vivo, green foxtail (Setaria viridis); details: foliage application, evaluated three weeks after application
How it was run: as §3

chickweed [10] = assay: Test Example 4: herbicidal effect by soil treatment (Table 19, symbol P); format: in vivo, common chickweed (Stellaria media); details: amount of applied herbicide 320 g/ha
How it was run: as §2

chickweed [11] = assay: Test Example 5: herbicidal effect by foliage application, plastic box (Table 20, symbol P); format: in vivo, common chickweed (Stellaria media); details: foliage application, evaluated three weeks after application
How it was run: as §3

velvetleaf [12] = assay: Test Example 5: herbicidal effect by foliage application, plastic box (Table 20, symbol M); format: in vivo, velvetleaf (Abutilon theophrasti); details: foliage application, evaluated three weeks after application
How it was run: as §3

Chinese sprangletop = assay: Test Example 3: herbicidal effect by foliage application, Wagner pot (Table 18, symbol D); format: in vivo, chinese sprangletop (Leptochloa chinensis); details: amount of applied herbicide 320 g/ha
How it was run: (§4)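 Plants were sown in alluvial soil held under 0.1–0.5 cm standing water and grown 14 days in a greenhouse at 25–30 °C. An emulsifiable formulation, water-diluted to the set dose, was then sprayed onto the foliage, and effects were scored three weeks later using previously defined criteria.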

rice flat sedge = assay: Test Example 3: herbicidal effect by foliage application, Wagner pot (Table 18, symbol E); format: in vivo, rice flat sedge (Cyperus iria); details: amount of applied herbicide 320 g/ha
How it was run: as §4

barnyard grass [13] = assay: Test Example 5: herbicidal effect by foliage application, plastic box (Table 20, symbol H); format: in vivo, barnyard grass (Echinochloa crus-galli); details: foliage application, evaluated three weeks after application
How it was run: as §3

persian speedwell [14] = assay: Test Example 5: herbicidal effect by foliage application, plastic box (Table 20, symbol R); format: in vivo, Persian speedwell (Veronica persica); details: foliage application, evaluated three weeks after application
How it was run: as §3

southern crabgrass [15] = assay: Test Example 5: herbicidal effect by foliage application, plastic box (Table 20, symbol F); format: in vivo, southern crabgrass (Digitaria ciliaris); details: foliage application, evaluated three weeks after application
How it was run: as §3

Italian ryegrass [16] = assay: Test Example 5: herbicidal effect by foliage application, plastic box (Table 20, symbol K); format: in vivo, Italian ryegrass (Lolium multiflorum); details: foliage application, evaluated three weeks after application
How it was run: as §3

lambsquarters [17] = assay: Test Example 5: herbicidal effect by foliage application, plastic box (Table 20, symbol O); format: in vivo, lambsquarters (Chenopodium album); details: foliage application, evaluated three weeks after application
How it was run: as §3

redroot pigweed [18] = assay: Test Example 4: herbicidal effect by soil treatment (Table 19, symbol N); format: in vivo, redroot pigweed (Amaranthus retroflexus); details: amount of applied herbicide 320 g/ha
How it was run: as §2

wild oat [19] = assay: Test Example 4: herbicidal effect by soil treatment (Table 19, symbol I); format: in vivo, wild oat (Avena fatua); details: amount of applied herbicide 320 g/ha
How it was run: as §2

blackgrass [20] = assay: Test Example 5: herbicidal effect by foliage application, plastic box (Table 20, symbol J); format: in vivo, blackgrass (Alopecurus myosuroides); details: foliage application, evaluated three weeks after application
How it was run: as §3

lambsquarters [21] = assay: Test Example 4: herbicidal effect by soil treatment (Table 19, symbol O); format: in vivo, lambsquarters (Chenopodium album); details: amount of applied herbicide 320 g/ha
How it was run: as §2

barnyard grass [22] = assay: Test Example 3: herbicidal effect by foliage application, Wagner pot (Table 18, symbol H); format: in vivo, barnyard grass (Echinochloa crus-galli); details: amount of applied herbicide 320 g/ha
How it was run: as §4

blackgrass [23] = assay: Test Example 4: herbicidal effect by soil treatment (Table 19, symbol J); format: in vivo, blackgrass (Alopecurus myosuroides); details: amount of applied herbicide 320 g/ha
How it was run: as §2

velvetleaf [24] = assay: Test Example 4: herbicidal effect by soil treatment (Table 19, symbol M); format: in vivo, velvetleaf (Abutilon theophrasti); details: amount of applied herbicide 320 g/ha
How it was run: as §2

redroot pigweed [25] = assay: Test Example 5: herbicidal effect by foliage application, plastic box (Table 20, symbol N); format: in vivo, redroot pigweed (Amaranthus retroflexus); details: foliage application, evaluated three weeks after application
How it was run: as §3

Structure (SMILES)	Herbicidal effect on A: late watergrass (grade 0-5) (late watergrass)	Herbicidal effect on B: Japanese bulrush (grade 0-5) (Japanese bulrush)	herbicidal effect on R: persian speedwell (persian speedwell [1])	herbicidal effect on L: windgrass (windgrass [3])	Herbicidal effect on C: oval-leafed pondweed (grade 0-5) (oval-leafed pondweed)	herbicidal effect on F: southern crabgrass (southern crabgrass [4])	herbicidal effect on K: Italian ryegrass (Italian ryegrass [5])	herbicidal effect on G: green foxtail (green foxtail [6])	herbicidal effect on H: barnyard grass (barnyard grass [7])	herbicidal effect on P: chickweed (chickweed [10])	herbicidal effect on D: Chinese sprangletop (Chinese sprangletop)	herbicidal effect on E: rice flat sedge (rice flat sedge)	herbicidal effect on N: redroot pigweed (redroot pigweed [18])	herbicidal effect on I: wild oat (wild oat [19])	herbicidal effect on O: lambsquarters (lambsquarters [21])	herbicidal effect on H: barnyard grass (barnyard grass [22])	herbicidal effect on J: blackgrass (blackgrass [23])	herbicidal effect on M: velvetleaf (velvetleaf [24])	further results
Cc1nn(C)c(=O)c(-c2c(-c3ccc([S+](C)[O-])cc3)sc3ccc(F)cc23)c1O (stereo not drawn) [2-256]	2 (Herbicidal rate of 20% or more and less than 40%)	0 (Herbicidal rate of 5% or less (almost no effect))	4 (Herbicidal rate of 70% or more and less than 90%)	0 (Herbicidal rate of 5% or less (almost no effect))	0 (Herbicidal rate of 5% or less (almost no effect))	0 (Herbicidal rate of 5% or less (almost no effect))	3 (Herbicidal rate of 40% or more and less than 70%)	0 (Herbicidal rate of 5% or less (almost no effect))	0 (Herbicidal rate of 5% or less (almost no effect))	3 (Herbicidal rate of 40% or more and less than 70%)	4 (Herbicidal rate of 70% or more and less than 90%)	4 (Herbicidal rate of 70% or more and less than 90%)	3 (Herbicidal rate of 40% or more and less than 70%)	1 (Herbicidal rate of 5% or more and less than 20%)	0 (Herbicidal rate of 5% or less (almost no effect))	5 (Herbicidal rate of 90% or more (almost completely withered))	0 (Herbicidal rate of 5% or less (almost no effect))	0 (Herbicidal rate of 5% or less (almost no effect))	L: windgrass, herbicidal effect (criteria 0-5) (windgrass [2]; AAH 320 g/ha): 5 (Herbicidal rate of 90% or more (almost completely withered)); I: wild oat, herbicidal effect (criteria 0-5) (wild oat [8]; AAH 320 g/ha): 5 (Herbicidal rate of 90% or more (almost completely withered)); G: green foxtail, herbicidal effect (criteria 0-5) (green foxtail [9]; AAH 320 g/ha): 3 (Herbicidal rate of 40% or more and less than 70%); P: chickweed, herbicidal effect (criteria 0-5) (chickweed [11]; AAH 320 g/ha): 5 (Herbicidal rate of 90% or more (almost completely withered)); M: velvetleaf, herbicidal effect (criteria 0-5) (velvetleaf [12]; AAH 320 g/ha): 4 (Herbicidal rate of 70% or more and less than 90%); H: barnyard grass, herbicidal effect (criteria 0-5) (barnyard grass [13]; AAH 320 g/ha): 1 (Herbicidal rate of 5% or more and less than 20%); R: persian speedwell, herbicidal effect (criteria 0-5) (persian speedwell [14]; AAH 320 g/ha): 5 (Herbicidal rate of 90% or more (almost completely withered)); F: southern crabgrass, herbicidal effect (criteria 0-5) (southern crabgrass [15]; AAH 320 g/ha): 4 (Herbicidal rate of 70% or more and less than 90%); K: Italian ryegrass, herbicidal effect (criteria 0-5) (Italian ryegrass [16]; AAH 320 g/ha): 5 (Herbicidal rate of 90% or more (almost completely withered)); O: lambsquarters, herbicidal effect (criteria 0-5) (lambsquarters [17]; AAH 320 g/ha): 5 (Herbicidal rate of 90% or more (almost completely withered)); J: blackgrass, herbicidal effect (criteria 0-5) (blackgrass [20]; AAH 320 g/ha): 3 (Herbicidal rate of 40% or more and less than 70%); N: redroot pigweed, herbicidal effect (criteria 0-5) (redroot pigweed [25]; AAH 320 g/ha): 5 (Herbicidal rate of 90% or more (almost completely withered))
CCCC(=O)Oc1c(C)nn(C)c(=O)c1-c1c(-c2cccc(C(F)(F)F)c2)sc2ccc(F)cc12 [2-232]	3 (Herbicidal rate of 40% or more and less than 70%)	0 (Herbicidal rate of 5% or less (almost no effect))	3 (Herbicidal rate of 40% or more and less than 70%)	0 (Herbicidal rate of 5% or less (almost no effect))	0 (Herbicidal rate of 5% or less (almost no effect))	0 (Herbicidal rate of 5% or less (almost no effect))	0 (Herbicidal rate of 5% or less (almost no effect))	0 (Herbicidal rate of 5% or less (almost no effect))	0 (Herbicidal rate of 5% or less (almost no effect))	3 (Herbicidal rate of 40% or more and less than 70%)	5 (Herbicidal rate of 90% or more (almost completely withered))	5 (Herbicidal rate of 90% or more (almost completely withered))	0 (Herbicidal rate of 5% or less (almost no effect))	0 (Herbicidal rate of 5% or less (almost no effect))	0 (Herbicidal rate of 5% or less (almost no effect))	4 (Herbicidal rate of 70% or more and less than 90%)	0 (Herbicidal rate of 5% or less (almost no effect))	0 (Herbicidal rate of 5% or less (almost no effect))	herbicidal effect on L: windgrass (criteria 0-5) (windgrass [2]; 320 g/ha): 1 (Herbicidal rate of 5% or more and less than 20%); herbicidal effect on I: wild oat (criteria 0-5) (wild oat [8]; 320 g/ha): 0 (Herbicidal rate of 5% or less (almost no effect)); herbicidal effect on G: green foxtail (criteria 0-5) (green foxtail [9]; 320 g/ha): 0 (Herbicidal rate of 5% or less (almost no effect)); herbicidal effect on P: chickweed (criteria 0-5) (chickweed [11]; 320 g/ha): 5 (Herbicidal rate of 90% or more (almost completely withered)); herbicidal effect on M: velvetleaf (criteria 0-5) (velvetleaf [12]; 320 g/ha): 5 (Herbicidal rate of 90% or more (almost completely withered)); herbicidal effect on H: barnyard grass (criteria 0-5) (barnyard grass [13]; 320 g/ha): 0 (Herbicidal rate of 5% or less (almost no effect)); herbicidal effect on R: persian speedwell (criteria 0-5) (persian speedwell [14]; 320 g/ha): 5 (Herbicidal rate of 90% or more (almost completely withered)); herbicidal effect on F: southern crabgrass (criteria 0-5) (southern crabgrass [15]; 320 g/ha): 0 (Herbicidal rate of 5% or less (almost no effect)); herbicidal effect on K: Italian ryegrass (criteria 0-5) (Italian ryegrass [16]; 320 g/ha): 0 (Herbicidal rate of 5% or less (almost no effect)); herbicidal effect on O: lambsquarters (criteria 0-5) (lambsquarters [17]; 320 g/ha): 3 (Herbicidal rate of 40% or more and less than 70%); herbicidal effect on J: blackgrass (criteria 0-5) (blackgrass [20]; 320 g/ha): 0 (Herbicidal rate of 5% or less (almost no effect)); herbicidal effect on N: redroot pigweed (criteria 0-5) (redroot pigweed [25]; 320 g/ha): 5 (Herbicidal rate of 90% or more (almost completely withered))
